Values of other authors, collected in patent US9750732B2, “Urinary triaosylceramide (Gb3) as a marker of cardiac disease” (Baylor Research Institute, priority 2009, dated 2017).
Like-named read-outs stand apart in the source and are kept apart here.

What was measured:
APC: protein S [1] = conditions: purified proteins
APC: protein S [2] = conditions: exogenously added; in the presence but not absence of APC: protein S
[3] = in multicomponent vesicles containing phosphatidylserine and phosphatidylcholine

| Substance | inactivation of factor Va by APC: protein S (APC: protein S [1]; [3]) | clotting times of normal plasma (APC: protein S [2]) | inactivation of factor Va by APC: protein S (APC: protein S [1]; glycolipid alone) |
| --- | --- | --- | --- |
| galactosylceramide | enhanced |  |  |
| globotriaosylceramide [Gb3Cer] | enhanced | dose-dependently prolonged clotting times |  |
| glycosylceramide [GlcCer] | enhanced | dose-dependently prolonged clotting times | enhanced |
| lactosylceramide | enhanced |  |  |
